The values that follow are results of earlier work, collected in patent US20220154222A1, “NOVEL NUCLEIC ACID MODIFIERS” (THE BROAD INSTITUTE, INC., priority 2019, published 2022).

This data set has as its system Factor VII gene silencing in hepatocytes. Conditions: LNP siRNA systems containing the ionizable cationic lipid; hepatocytes in vivo.
In the case of “1,2-dilinoleyloxy-keto-N,N-dimethyl-3-aminopropane [DLinKDMA]”, the “gene silencing potency, rank order of the series” value (shortened to “gene silencing potency”) was “DLinKC2-DMA>DLinKDMA>DLinDMA>>DLinDAP”.
Take `CCCCC/C=C\C/C=C\CCCCCCCC(=O)OCC(CN(C)C)OC(=O)CCCCCCC/C=C\C/C=C\CCCCC` (stereo not shown) [DLinDAP, 1,2-dilineoyl-3-dimethylammonium-propane]: the “gene silencing potency” value is given as “DLinKC2-DMA>DLinKDMA>DLinDMA>>DLinDAP”.
With `CCCCC/C=C\C/C=C\CCCCCCCCOCC(CN(C)C)OCCCCCCCC/C=C\C/C=C\CCCCC` (stereo not shown) [DLinDMA, 1,2-dilinoleyloxy-3-N,N-dimethylaminopropane], the “gene silencing potency” value is listed as “DLinKC2-DMA>DLinKDMA>DLinDMA>>DLinDAP”.
In the case of `CCCCC/C=C\C/C=C\CCCCCCCCC1(CCCCCCCC/C=C\C/C=C\CCCCC)OCC(CCN(C)C)O1` (stereo not shown) [DLinKC2-DMA, 1,2-dilinoleyl-4-(2-dimethylaminoethyl)-[1,3]-dioxolane], the “gene silencing potency” value is on record as “DLinKC2-DMA>DLinKDMA>DLinDMA>>DLinDAP”.
